Test results: patent US8541543B2, “Peptides specific for hepatocellular carcinoma cells and applications thereof” (Academia Sinica, priority 2007, dated 2013)

Key:
advanced HCC = details: HCC (ref 36); cited from earlier work
[1] = tested on: Mahlavu-derived HCC xenografts; experiment: In vivo peptide competitive inhibition of PC94 tumor binding; set-up: species or system SCID mice; details: 100 μg peptide co-injected with PC94, FIG. 3B
Method: (§1) SCID mice (4-6 weeks old) were injected subcutaneously (s.c.) into the dorsal-lateral flank with 5×10^6 Mahlavu cells. Mice bearing Mahlavu-derived xenografts (500 mm^3) were injected intravenously (i.v.) with 2×10^9 pfu of PC94 or control phage. After perfusion, the organs (brain, heart, and lungs) and tumor tissue were removed, washed with cold PBS and weighed. The phage bound to the tumor tissue and organs were rescued by Escherichia coli ER2738 culture. The eluted phage particles were titrated on LB/IPTG/X-Gal plates. In peptide competitive inhibition experiments, 2×10^9 pfu of PC94 phage was co-injected with 100 μg of SP94 peptide or the control peptide. The tissue distribution of targeting phages in the tumor-bearing mice was examined by immunohistochemical staining. The tissue sections were incubated with mouse anti-M13 antibody, followed by incubation with biotinylated horse anti-mouse antibody (ABC kit; Vector Laboratories, Burlingame, Calif., USA) and washed with PBS, then immersed with ABC reagent. The sections were immersed in DAB solution plus 0.01% hydrogen peroxide, washed with PBS and mounted with 50% glycerol in PBS.

[2] = tested on: Mahlavu-derived HCC xenografts; experiment: Immunohistochemical tissue distribution of targeting phages in tumor-bearing mice; format: in vivo, SCID mice; details: FIG. 3C, j
Method: as §1

For `COc1cccc2c1C(=O)c1c(O)c3c(c(O)c1C2=O)C[C@@](O)(C(=O)CO)C[C@@H]3O[C@H]1C[C@H](N)[C@H](O)[C@H](C)O1` [doxorubicin], the overall response rate (advanced HCC) is given as 18%.
For FPWFPLPSPYGN [control peptide], the “inhibition of PC94 binding to tumor tissue” value [1] was “no such inhibitory effect”.
In the case of SFSIIHTPILPL [SP94], the “immuno-reactivity of tumor tissue when PC94 co-injected with peptide” value [2] was “no immuno-reactivity was found in the tumor tissue”.
